Experimental data published in patent US20210205277A1, “MODULATORS OF THE INTEGRATED STRESS PATHWAY” (Calico Life Sciences LLC, priority 2017, published 2021).

system: HEK293T cells carrying the ATF4 luciferase reporter; assay: ATF4-Luc assay (in vitro model of VWMD); type: cell-based; settings: Homo sapiens, HEK-293T; HEK293T cells with ATF4 5'-UTR firefly luciferase reporter; 1 μg/mL tunicamycin; 7 hours; One Glo luminescence
Protocol: In order to test exemplary compounds of the invention in a cellular context, a stable VWMD cell line was first constructed. The ATF4 reporter was prepared by fusing the human full-length ATF4 5′-UTR (NCBI Accession No. BC022088.2) in front of the firefly luciferase (FLuc) coding sequence lacking the initiator methionine as described in Sidrauski et al (eLife 2013). The construct was used to produce recombinant retroviruses using standard methods and the resulting viral supernatant was used to transduce HEK293T cells, which were then subsequently selected with puromycin to generate a stable cell line.
HEK293T cells carrying the ATF4 luciferase reporter were plated on polylysine coated 384-well plates (Greiner Bio-one) at 30,000 cells per well. Cells were treated the next day with 1 μg/mL tunicamycin and 200 nM of a compound of Formula (I) for 7 hours. Luminescence was measured using One Glo (Promega) as specified by the manufacturer. Cells were maintained in DMEM with L-glutamine supplemented with 10% heat-inactivated FBS (Gibco) and Antibiotic-Antimycotic solution (Gibco).
Table 2 below summarizes the EC50 data obtained using the ATF4-Luc assay for exemplary compounds of the invention.

Row | Compound | EC50 [µM]
1 | COc1ncc(-c2nnc(C34CCC(NC(=O)COc5ccc(Cl)c(F)c5)(CC3)C(O)C4)o2)cn1 (stereo not shown) [Compound 124, 2-(4-chloro-3-fluorophenoxy)-N-{2-hydroxy-4-[5-(2-methoxypyrimidin-5-yl)-1,3,4-oxadiazol-2-yl]bicyclo[2.2.2]octan-1-yl}acetamide] | > 2
2 | O=C(COc1ccc(Cl)c(F)c1)NC12CCC(n3ccc(-c4ccc(Cl)c(F)c4)c3)(CC1)C[C@@H]2O [Compound 113, 2-(4-chloro-3-fluorophenoxy)-N-{(2S)-4-[3-(4-chloro-3-fluorophenyl)-1H-pyrrol-1-yl]-2-hydroxybicyclo[2.2.2]octan-1-yl}acetamide] | < 0.01
3 | O=C(COc1ccc(Cl)c(F)c1)NC12CCC(c3nnc(-c4ccc(Cl)c(F)c4)o3)(CC1)C[C@H]2O (single isomer, unassigned) [Compound 122] | < 0.01
4 | O=C(COc1ccc(Cl)c(F)c1)NC12CCC(c3ncc(-c4ccc(Cl)cc4)[nH]3)(CC1)[C@H](O)C2 [Compound 118, 2-(4-chloro-3-fluorophenoxy)-N-{(3R)-4-[5-(4-chlorophenyl)-1H-imidazol-2-yl]-3-hydroxybicyclo[2.2.2]octan-1-yl}acetamide] | < 0.01
5 | O=C(COc1ccc(Cl)c(F)c1)NC12CCC(n3ccc(-c4ccc(Cl)cc4)c3)(CC1)CC2O (stereo not shown) [Compound 109, 2-(4-chloro-3-fluorophenoxy)-N-{4-[3-(4-chlorophenyl)-1H-pyrrol-1-yl]-2-hydroxybicyclo[2.2.2]octan-1-yl}acetamide] | 0.01 to 0.05
6 | O=C(COc1ccc(Cl)c(F)c1)NC12CCC(c3ncc(-c4ccc(Cl)cc4)[nH]3)(CC1)[C@@H](O)C2 [Compound 110, 2-(4-chloro-3-fluorophenoxy)-N-{(3S)-4-[5-(4-chlorophenyl)-1H-imidazol-2-yl]-3-hydroxybicyclo[2.2.2]octan-1-yl}acetamide] | < 0.01
7 | O=C(COc1ccc(Cl)c(F)c1)NC12CCC(c3ncc(-c4ccc(Cl)c(F)c4)[nH]3)(CC1)[C@@H](O)C2 [Compound 119, 2-(4-chloro-3-fluorophenoxy)-N-{(3S)-4-[5-(4-chloro-3-fluorophenyl)-1H-imidazol-2-yl]-3-hydroxybicyclo[2.2.2]octan-1-yl}acetamide] | < 0.01
8 | O=C(COc1ccc(Cl)c(F)c1)NC12CCC(c3nnc(-c4ccc(Cl)c(F)c4)o3)(CC1)C(=O)C2 [Compound 106, 2-(4-chloro-3-fluorophenoxy)-N-{4-[5-(4-chloro-3-fluorophenyl)-1,3,4-oxadiazol-2-yl]-3-oxobicyclo[2.2.2]octan-1-yl}acetamide] | < 0.01
9 | O=C(COc1ccc(Cl)c(F)c1)NC12CCC(c3nc(-c4ccc(Cl)c(F)c4)no3)(CC1)[C@@H](O)C2 [Compound 104, 2-(4-chloro-3-fluorophenoxy)-N-{(3S)-4-[3-(4-chloro-3-fluorophenyl)-1,2,4-oxadiazol-5-yl]-3-hydroxybicyclo[2.2.2]octan-1-yl}acetamide] | < 0.01
10 | O=C(NC12CCC(c3nc(-c4ccc(Cl)c(F)c4)no3)(CC1)C(O)C2)c1cc(C(F)F)no1 (stereo not shown) [Compound 121, N-{4-[3-(4-chloro-3-fluorophenyl)-1,2,4-oxadiazol-5-yl]-3-hydroxybicyclo[2.2.2]octan-1-yl}-3-(difluoromethyl)-1,2-oxazole-5-carboxamide] | 0.5 to 2
11 | O=C(NC12CCC(c3nc(-c4cccc(F)c4)no3)(CC1)C(O)C2)c1cc(C(F)F)no1 (stereo not shown) [Compound 120, 3-(difluoromethyl)-N-{4-[3-(3-fluorophenyl)-1,2,4-oxadiazol-5-yl]-3-hydroxybicyclo[2.2.2]octan-1-yl}-1,2-oxazole-5-carboxamide] | > 2
12 | O=C(COc1ccc(Cl)c(F)c1)NC12CCC(n3nccc3-c3ccc(Cl)c(F)c3)(CC1)C[C@@H]2O [Compound 112, 2-(4-chloro-3-fluorophenoxy)-N-{(2S)-4-[5-(4-chloro-3-fluorophenyl)-1H-pyrazol-1-yl]-2-hydroxybicyclo[2.2.2]octan-1-yl}acetamide] | 0.5 to 2
13 | O=C(COc1ccc(Cl)c(F)c1)NC12CCC(c3nnc(-c4ccc(Cl)c(F)c4)o3)(CC1)C[C@@H]2O (single isomer, unassigned) [Compound 123] | < 0.01
14 | O=C(COc1ccc(Cl)c(Cl)c1)NC12CCC(n3ccc(-c4ccc(Cl)c(F)c4)c3)(CC1)C[C@@H]2O [Compound 115, N-{(2S)-4-[3-(4-chloro-3-fluorophenyl)-1H-pyrrol-1-yl]-2-hydroxybicyclo[2.2.2]octan-1-yl}-2-(3,4-dichlorophenoxy)acetamide] | < 0.01
15 | O=C(COc1ccc(Cl)c(F)c1)NC12CCC(c3nnc(-c4ccc(Cl)c(F)c4)o3)(CC1)C(O)C2 (stereo not shown) [Compound 107, 2-(4-chloro-3-fluorophenoxy)-N-{4-[5-(4-chloro-3-fluorophenyl)-1,3,4-oxadiazol-2-yl]-3-hydroxybicyclo[2.2.2]octan-1-yl}acetamide] | < 0.01
16 | O=C(COc1ccc(Cl)c(F)c1)NC12CCC(c3nc(-c4ccc(Cl)c(F)c4)no3)(CC1)C(=O)C2 [Compound 105, 2-(4-chloro-3-fluorophenoxy)-N-{4-[3-(4-chloro-3-fluorophenyl)-1,2,4-oxadiazol-5-yl]-3-oxobicyclo[2.2.2]octan-1-yl}acetamide] | < 0.01
17 | O=C(COc1ccc(Cl)c(F)c1)NC12CCC(c3nc(-c4ccc(Cl)c(F)c4)no3)(CC1)[C@H](O)C2 [Compound 103, 2-(4-chloro-3-fluorophenoxy)-N-{(3R)-4-[3-(4-chloro-3-fluorophenyl)-1,2,4-oxadiazol-5-yl]-3-hydroxybicyclo[2.2.2]octan-1-yl}acetamide] | 0.01 to 0.05
18 | O=C(COc1ccc(Cl)c(F)c1)NC12CCC(c3nnc(-c4ccc(Cl)c(F)c4)o3)(CC1)CC2O (stereo not shown) [Compound 108, 2-(4-chloro-3-fluorophenoxy)-N-{4-[5-(4-chloro-3-fluorophenyl)-1,3,4-oxadiazol-2-yl]-2-hydroxybicyclo[2.2.2]octan-1-yl}acetamide] | < 0.01
19 | O=C(COc1ccc(Cl)c(F)c1)NC12CCC(n3ccc(-c4ccc(Cl)c(F)c4)c3)(CC1)CC2O (stereo not shown) [Compound 102, 2-(4-chloro-3-fluorophenoxy)-N-{4-[3-(4-chloro-3-fluorophenyl)-1H-pyrrol-1-yl]-2-hydroxybicyclo[2.2.2]octan-1-yl}acetamide] | < 0.01
20 | Cn1c(-c2ccc(Cl)c(F)c2)cnc1C12CC(NC(=O)COc3ccc(Cl)c(F)c3)(C1)C2 [Compound 117, 2-(4-chloro-3-fluorophenoxy)-N-{3-[5-(4-chloro-3-fluorophenyl)-1-methyl-1H-imidazol-2-yl]bicyclo[1.1.1]pentan-1-yl}acetamide] | 0.01 to 0.05
21 | O=C(COc1ccc(Cl)c(F)c1)NC12CCC(c3ncc(-c4ccc(Cl)cc4)o3)(CC1)[C@H](O)C2 [Compound 114, 2-(4-chloro-3-fluorophenoxy)-N-{(3R)-4-[5-(4-chlorophenyl)-1,3-oxazol-2-yl]-3-hydroxybicyclo[2.2.2]octan-1-yl}acetamide] | < 0.01
22 | O=C(COc1ccc(Cl)c(F)c1)NC12CCC(c3nnc(-c4ccc(Cl)c(F)c4)o3)(CC1)[C@H](O)C2 (single isomer, unassigned) [Compound 101] | < 0.01
23 | O=C(COc1ccc(Cl)c(F)c1)NC12CCC(c3nc(-c4ccc(Cl)c(F)c4)no3)(CC1)CC2=O [Compound 111, 2-(4-chloro-3-fluorophenoxy)-N-{4-[3-(4-chloro-3-fluorophenyl)-1,2,4-oxadiazol-5-yl]-2-oxobicyclo[2.2.2]octan-1-yl}acetamide] | > 2
24 | O=C(COc1ccc(Cl)c(F)c1)NC12CC(c3ncc(-c4ccc(Cl)c(F)c4)[nH]3)(C1)C2 [Compound 116, 2-(4-chloro-3-fluorophenoxy)-N-{3-[5-(4-chloro-3-fluorophenyl)-1H-imidazol-2-yl]bicyclo[1.1.1]pentan-1-yl}acetamide] | < 0.01
25 | O=C(COc1ccc(Cl)c(F)c1)NC12CCC(c3nnc(-c4ccc(Cl)c(F)c4)o3)(CC1)[C@@H](O)C2 [Compound 100, 2-(4-chloro-3-fluorophenoxy)-N-{(3S)-4-[5-(4-chloro-3-fluorophenyl)-1,3,4-oxadiazol-2-yl]-3-hydroxybicyclo[2.2.2]octan-1-yl}acetamide] | < 0.01
